Reference: patent US20080031811A1, “Method For Preparing Radioactive Film” (DONG WHA PHARM. IND. CO., LTD., priority 2004, published 2008)

Assay: Thermal characteristic of film (TGA)
Assay type: physicochemical
Conditions: measured at 500° C.
Description: The behavior of thermal change according to temperature change in holmium nitrate, polyurethane film, and holmium-165 polyurethane film (Example 13) is measured by using a thermogravimetric analyzer (TGA, […], Germany) and a differential scanning calorimetry (DSC, […], Germany). TGA analyzes the changes in the mass of a substance according to temperature by a thermal decomposition curve. The analysis conditions of TGA are as follows; 30˜600° C. of temperature, 5.0 mg of a substance, 10° C./min of heating rate. Calorie change of a substance according to temperature change is measured by DSC. DSC is measured at the same condition as TGA and the sample is sealed in an aluminum pan under nitrogen atmosphere.

**Q.** With `O=[N+]([O-])[O-].O=[N+]([O-])[O-].O=[N+]([O-])[O-].[Ho+3]` [holmium nitrate, ^165Ho(No3)3.5H2O] as the compound, how does the “Residual weight % after decomposition” value read?
**A.** Its value is 37%.
